According to patent publication US20250026741A1, “INHIBITORS OF THE ONCOGENIC SHP2 PHOSPHATASE AND USES THEREOF” (Sanford Burnham Prebys Medical Discovery Institute, priority 2021, published 2025):

Legend:
[1] = test system: KYSE-520 esophageal cancer cells; test: Cell viability assay (CellTiter-Glo), KYSE-520; assay type: cell-based; conditions: KYSE-520 cells, various concentrations, 3 d
From the text: (§1) Inhibition of SHP2 has been reported to inhibit the growth of cancer cells including Kasumi-1 acute myeloid leukemia (AML) and KYSE-520 esophageal cancer cells. […] Cell viability is shown as a percentage of the vehicle (DMSO) control and represents the mean±SD. B) #02 dose-response curves in cell viability assays using Kasumi-1, KYSE-520, MOLM-13, and […] cells after 3 d in culture. The percentages compared to DMSO vehicle control were curve fitted using nonlinear regression (log[inhibitor] vs. normalized response, variable slope) and represent the mean±SD. C) Cell viability of […] and MDA-MB-468 triple-negative breast cancer (TNBC) cells in the presence of various concentrations of #02 or the SHP2 allosteric inhibitor SHP099 after 5 d in culture. Cell viability is shown as a percentage of DMSO vehicle control, representing mean±SD, and curve fitted as in B). D) Colony formation assay (11 d) of […] and MDA-MB-468 TNBC cells in the presence of various concentrations of #02 or the SHP2 allosteric inhibitor SHP099. E) Phospho-ERK1/2 (p-ERK1/2) immunoblot analysis from total cell lysates of MOLM-13 AML cells treated with #02 at the indicated concentrations, or with SHP2 allosteric inhibitor RMC-4550 (RMC, 1 μM) for 3 h or 24 h. The quantitation of p-ERK1/2 levels is shown as the percentage of the DMSO (vehicle) control and represents data from three independent experiments (mean±SD). F) Viability of AML patient-derived cells in the presence of 10 μM #02 or 10 μM SHP2 allosteric inhibitor RMC-4550 after 2 d, 4 d, or 6 d in culture. Cell viability is shown as a percentage of the DMSO vehicle control and represents the mean±SD (*p<0.05; **p<0.01; ****p<0.0001; unpaired test with Welch's correction) G) Viability of MOLM-13 cells and MOLM-13-Cas9-mCherry cells with SHP2 knockout (KO) in the presence of #01, #02, and allosteric inhibitor SHP099 at various concentrations (10-point dose-response). The percentages compared to the DMSO vehicle control were curve fitted using nonlinear regression (log[inhibitor] vs. normalized response, variable slope) and represent the mean±SD. SHP2 protein levels in regular MOLM-13 cells (WT), MOLM-13-Cas9-mCherry cells (Cas9), and MOLM-13-Cas9-mCherry cells with SHP2 KO (SHP2 KO) were evaluated by immunoblot analysis using SHP2 antibodies.
(§2) Viability of AML, esophageal carcinoma, and TF-1 cells was assessed using the ATP-depletion assay CellTiter-Glo® (Promega). Cells were harvested at 1×10^6/mL to 2×10^6 cells/mL with cell numbers determined by trypan blue using the Countess Cell counter (Thermo Scientific) and resuspended in culture media. […] Luminescence was read on a Tecan Spark® Multimode Microplate Reader and data analyzed using Graph Pad Prism software.

[2] = test system: Kasumi-1 acute myeloid leukemia (AML) cells; test: Cell viability assay (CellTiter-Glo), Kasumi-1; assay type: cell-based; conditions: Kasumi-1 cells, various concentrations, 3 d
From the text: as §1, §2

## Nc1ccc(NC(=O)c2cc(-c3ccc(/C=C4\Sc5ccccc5C4=O)o3)ccc2O)cc1 [#01, (Z)—N-(4-Aminophenyl)-2-hydroxy-5-(5-((3-oxobenzo[b]thiophen-2(3H)-ylidene)methyl)furan-2-yl)benzamide]
[1]
  effect on cancer cell growth: dose-dependently inhibited cancer cell growth
[2]
  effect on cancer cell growth: dose-dependently inhibited cancer cell growth

## O=C(Nc1ccccc1)c1cc(-c2ccc(/C=C3\Sc4ccccc4C3=O)o2)ccc1O [#02, (Z)-2-hydroxy-5-(5-((3-oxobenzo[b]thiophen-2(3H)-ylidene)methyl)furan-2-yl)-N-phenylbenzamide]
[1]
  effect on cancer cell growth: dose-dependently inhibited cancer cell growth
[2]
  effect on cancer cell growth: dose-dependently inhibited cancer cell growth

## N#Cc1cc(-c2ccc(/C=C3\Sc4ccccc4C3=O)o2)ccc1O [#05, (Z)-2-Hydroxy-5-(5-((3-oxobenzo[b]thiophen-2(3H)-ylidene)methyl)furan-2-yl)benzonitrile]
[1]
  effect on cancer cell growth: dose-dependently inhibited cancer cell growth
[2]
  effect on cancer cell growth: dose-dependently inhibited cancer cell growth
